{
  "source": "patent US20130058977A1",
  "about": "“COMPOSITIONS AND METHODS RELATED TO INDUCED TOLEROGENIC DENDRITIC CELLS EXTERNALLY LOADED WITH MHC CLASS I-RESTRICTED EPITOPES” (Selecta Biosciences, Inc., priority 2011, published 2013)",
  "tested_on": "TCR transgenic OTI cells",
  "assay": "External loading of MHC Class I-restricted epitopes onto itDCs, read out as Phospho-Zap-70 in OTI cells",
  "assay_type": "cell-based",
  "details": "dendritic cells externally loaded on ice for 30 minutes; mixed with OTI cells for 30 min at 37 C; pZap70 staining",
  "method": "Dendritic cells were externally loaded on ice for 30 minutes with MHC Class I-restricted peptides from Ovalbumin recognized by TCR transgenic OTI cells. DC were washed and mixed with OTI cells for 30 min in complete media at 37 C, 5% CO2. Cells were stained with conjugated antibodies specifically recognizing TCR. After fixation and permeabilization with paraformaldehyde and methanol, cells were labelled with monoclonal antibodies specific for the phosphorylated (activated) form of the Zeta-chain-associated protein kinase 70 (Phospho-Zap-70). Expression of pZap70 is directly proportional to the amount of stimulatory signal delivered through the TCR to T cells.",
  "data": [
    {"substance": "SINFEKL [MHC Class I-restricted peptide from Ovalbumin recognized by TCR transgenic OTI cells]", "values": [
      {"measurement": "loading of a MHC Class I-restricted epitope onto itDCs", "result": "successful loading"}
    ]}
  ]
}
